The term IC50 denotes the concentration needed to halve the response being measured.

This experiment has as its target human PCSK9 (Homo sapiens, UniProt Q8NBP7). Briefly: PCSK9 ligand binding TR-FRET assay (interference with binding of human PCSK9 to human LDLR). The settings on record: for Max % inhibition: PCSK9 FRET assay, efficacy (Amax), 100% = 1 uM unlabeled human PCSK9, 0% = DMSO; for IC50: TR-FRET, human PCSK9 Alexa Fluor 647 / human LDLR extracellular domain-Europium Kryptate, read-out: PCSK9 FRET Assay IC50. An outline of the steps: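 Threefold compound dilutions were pre-incubated 30 min with PCSK9, after which 4 nM Europium Kryptate-tagged human LDLR ectodomain was added for a further 2 h.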

human PCSK9, sequence (Q8NBP7 153-692): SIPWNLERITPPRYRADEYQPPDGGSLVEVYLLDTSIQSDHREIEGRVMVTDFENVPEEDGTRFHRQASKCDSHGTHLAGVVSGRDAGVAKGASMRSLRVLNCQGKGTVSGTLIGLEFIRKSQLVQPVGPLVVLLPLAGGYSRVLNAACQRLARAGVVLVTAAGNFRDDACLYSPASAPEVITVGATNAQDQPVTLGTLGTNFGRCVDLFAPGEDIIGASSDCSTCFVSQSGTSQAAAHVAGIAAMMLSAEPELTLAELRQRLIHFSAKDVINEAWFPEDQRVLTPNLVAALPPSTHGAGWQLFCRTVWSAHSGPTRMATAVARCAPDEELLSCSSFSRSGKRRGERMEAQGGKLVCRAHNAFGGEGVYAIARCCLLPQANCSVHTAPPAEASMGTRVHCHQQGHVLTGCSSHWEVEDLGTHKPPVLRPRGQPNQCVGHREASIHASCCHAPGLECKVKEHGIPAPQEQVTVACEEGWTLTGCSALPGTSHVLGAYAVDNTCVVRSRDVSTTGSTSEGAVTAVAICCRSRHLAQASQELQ
human PCSK9, sequence (Q8NBP7 31-152 partner limits assumed): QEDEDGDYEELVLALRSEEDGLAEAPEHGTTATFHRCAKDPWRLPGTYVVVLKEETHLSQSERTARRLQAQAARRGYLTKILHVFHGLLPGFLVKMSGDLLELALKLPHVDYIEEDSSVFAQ

In the case of `C[C@H]1CNC(=O)C[C@H](Cc2ccc(Cl)cc2)N(C)C(=O)[C@H](CO)NC(=O)[C@H](C)N(Cc2ccccc2Oc2ccc(-c3cnc(CN(C)C)n3C)cc2)C(=O)CCC(=O)N1C` [Compound 66, (2S,5S,8S,13S)-8-(4-chlorobenzyl)-1-(2-(4-(2-((dimethylamino)methyl)-1-methyl-1H-imidazol-5-yl)phenoxy)benzyl)-5-(hydroxymethyl)-2,7,13,14-tetramethyl-1,4,7,11,14-pentaazacyclooctadecane-3,6,10,15,18-pentaone], the Max % inhibition was 91.88% and the 50% inhibitory concentration (IC50) was determined as 77.2 nM.
The corresponding values for `COC[C@@H]1NC(=O)[C@H](C)N(Cc2ccc(Cl)cc2Oc2ccc(-c3cnc(CN4CCCC4)n3C)cc2)C(=O)C[C@@H](Cc2cccc(F)c2F)C(=O)N(C)[C@@H](C)CNC(=O)C[C@H](Cc2ccc(Cl)cc2)N(C)C1=O` [Compound 67, (2S,5S,8S,13S,16R)-1-(4-chloro-2-(4-(1-methyl-2-(pyrrolidin-1-ylmethyl)-1H-imidazol-5-yl)phenoxy)benzyl)-8-(4-chlorobenzyl)-16-(2,3-difluorobenzyl)-5-(methoxymethyl)-2,7,13,14-tetramethyl-1,4,7,11,14-pentaazacyclooctadecane-3,6,10,15,18-pentaone] are 96.63% and 0.6 nM.
The matching figures for `CCOc1ncc(-c2ccc(Oc3cc(Cl)ccc3CN3C(=O)C[C@@H](Cc4ccccc4)C(=O)N(C)[C@@H](C)CNC(=O)C[C@H](Cc4ccc(Cl)cc4)N(C)C(=O)[C@H](COC)NC(=O)[C@@H]3C)cc2)n1C` [Compound 68, (2S,5S,8S,13S,16R)-16-benzyl-1-(4-chloro-2-(4-(2-ethoxy-1-methyl-1H-imidazol-5-yl)phenoxy)benzyl)-8-(4-chlorobenzyl)-5-(methoxymethyl)-2,7,13,14-tetramethyl-1,4,7,11,14-pentaazacyclooctadecane-3,6,10,15,18-pentaone]: 77.84% and 30.5 nM.
As to `COC[C@@H]1NC(=O)[C@H](C)N(Cc2ccc(Cl)cc2Oc2ccc(-c3cnc(OC)nc3)cc2)C(=O)C[C@@H](Cc2ccccc2)C(=O)N(C)[C@@H](C)CNC(=O)C[C@H](Cc2ccc(Cl)cc2)N(C)C1=O` [Compound 69, (2S,5S,8S,13S,16R)-16-benzyl-1-(4-chloro-2-(4-(2-methoxypyrimidin-5-yl)phenoxy)benzyl)-8-(4-chlorobenzyl)-5-(methoxymethyl)-2,7,13,14-tetramethyl-1,4,7,11,14-pentaazacyclooctadecane-3,6,10,15,18-pentaone], the Max % inhibition amounted to 64.09% and the IC50 was 43 nM.
The matching figures for `CC[C@H]1C(=O)N[C@@H](COC)C(=O)N(C)[C@@H](Cc2ccc(Cl)cc2)CC(=O)NC[C@H](C)N(C)C(=O)[C@H](Cc2ccccc2)CC(=O)N1Cc1ccc(Cl)cc1Oc1ccc(-c2cnc(CN(C)C)n2C)cc1` [Compound 70, (2S,5S,8S,13S,16R)-16-benzyl-1-(4-chloro-2-(4-(2-((dimethylamino)methyl)-1-methyl-1H-imidazol-5-yl)phenoxy)benzyl)-8-(4-chlorobenzyl)-2-ethyl-5-(methoxymethyl)-7,13,14-trimethyl-1,4,7,11,14-pentaazacyclooctadecane-3,6,10,15,18-pentaone]: 101.10% and 0.9 nM.
Take `COC[C@@H]1NC(=O)[C@H](C)N(Cc2ccc(Cl)cc2Oc2ccc(-c3cnc(CN(C)C)n3C)cc2)C(=O)C[C@@H](Cc2ccccc2)C(=O)N(C)[C@@H](C(=O)OC)CNC(=O)C[C@H](Cc2ccc(Cl)cc2)N(C)C1=O` [Compound 71, (2S,5S,8S,13R,16R)-methyl 16-benzyl-1-(4-chloro-2-(4-(2-((dimethylamino)methyl)-1-methyl-1H-imidazol-5-yl)phenoxy)benzyl)-8-(4-chlorobenzyl)-5-(methoxymethyl)-2,7,14-trimethyl-3,6,10,15,18-pentaoxo-1,4,7,11,14-pentaazacyclooctadecane-13-carboxylate]: the Max % inhibition worked out at 102.12% and the half-inhibitory concentration (IC50) was 12.9 nM.

The values are drawn from patent publication US20230089867A1, “CYCLIC PENTAMER COMPOUNDS AS PROPROTEIN CONVERTASE SUBTILISIN/KEXIN TYPE 9 (PCSK9) INHIBITORS FOR THE TREATMENT OF METABOLIC DISORDER” (Novartis AG, priority 2018, published 2023).
